Test results taken from publication PMC3937211, “Serine Carboxypeptidase SCPEP1 and Cathepsin A Play Complementary Roles in Regulation of Vasoconstriction via Inactivation of Endothelin-1” (PLoS Genetics, 2014).

Legend:
[1] = test system: mesenteric arteries; assay: Vessel reactivity ex vivo; parameters: species or system mouse; settings: 10^−11–10^−8 M
Experimental: Vessel reactivity ex vivo was analyzed as described, [40]. Briefly, male mice were sacrificed at five months and their mesenteric arteries were isolated and mounted onto glass capillaries in an artereograph chamber filled with cold oxygenated Krebs solution (118.6 mM NaCl, 4.7 mM KCl, 1.2 mM KH2PO4, 1.2 mM MgSO4, 25.1 mM NaHCO3, 26 µM EDTA, 0.18% glucose, 2.5 mM CaCl2). The arteries were constantly perfused intraluminally with Krebs solution at 30 mmHg. After 45 minutes of equilibration vascular reactivity was measured in response to Norepinephrine (Sigma A-0937, 10^−9–10^−5 M), Acetylcholine (Sigma A-6625, 10^−9–10^−4 M), Sodium Nitroprusside (Calbiochem 56538, 10^−9–10^−4 M), Endothelin-1 (American Peptide Company 88-1-10, 10^−11–10^−8 M) and AI, (American Peptide Company 12-1-10, 10^−8–10^−4 M). Drugs were added extraluminally with a 30 min washout period in between each drug, during which the arteries were able to re-equilibrate to a baseline. To test vasodilatation arteries were pre-contracted with NE to 70% of their equilibration diameter. At least 3 concentration response curves were conducted for each vessel and at least 6 animals were studied for each genotype.

[2] = test system: homogenates of cultured AVSMC; assay: Carboxypeptidase activity against ET-1 in homogenates of cultured AVSMC; format: biochemical, mouse; settings: 50 µM ET-1
Text: Figure 1 Scpep1 has carboxypeptidase activity against ET-1. A. Carboxypeptidase activity against ET-1 in homogenates of cultured AVSMC from WT, Scpep1 ^−/−, CathA^S190A and Scpep1 ^−/− /CathA^S190A mice as well as from the cells of Scpep1 ^−/− /CathA^S190A mice transiently transfected with pCMV-GFP and pCMV-Scpep1 plasmids. AVSMC after the passage 3 were transfected or not with Scpep1-RGS-His-Tag and pEGFP-C1 plasmids. Forty-eight hours after transfection confluent cells were harvested, homogenized and tested for carboxypeptidase activity using 50 µM ET-1 as a substrate. Data are expressed as means (±S.D.) of 3 independent experiments performed with different cell cultures. * p<0.05 and ** p<0.01 in two-tailed unpaired t-test. B. Carboxypeptidase activity against ET-1 in homogenates of cultured AVSMC from WT mice transfected with Scpep1 and CathA shRNA. AVSMC after the passage 3 were transfected with pRFP-C-RS vectors expressing shRNA for mouse CathA and Scpep1 or non-effective 29-mer scrambled shRNA as indicated. Seventy-two hours after transfection the cells were harvested, and those expressing plasmids enriched by cell-sorting, homogenized and tested for carboxypeptidase activity using 50 µM ET-1 as a substrate. […] C. Carboxypeptidase activity against ET-1 of purified recombinant Scpep1. Scpep1 carrying a His6 tag at the C-terminus was expressed in stably transfected HT1080 cells and purified by affinity chromatography on Ni-NTA resin followed by anion-exchange chromatography as described. Carboxypeptidase activity was assayed with 50 µM ET-1 as a substrate and 0.4–0.8 µg of the purified enzyme in the reaction mixture in 50 mM sodium phosphate/50 mM sodium acetate buffer at pH 5.5, 6.5 and 7.5. Bars show mean values (±S.D.) of 3 independent experiments. […] The amino acid analysis of the reaction mixture determined that Scpep1 cleaves the C-terminal amino acid (Trp21) from ET-1 (not shown). […]
Carboxypeptidase activity in cultured AVSMC was measured against 50 µM ET-1 as previously described using the method measuring the liberation rate of the C-terminal amino acid of the peptide. […]

carboxypeptidase activity against ET-1 ([2]; AVSMC of CathA^S190A mice, sodium acetate buffer pH 5.4, 30–180 min at 37°C, 3 independent experiments): ~10% | carboxypeptidase activity against ET-1 ([2]; CathA^S190A/Scpep1^−/− mice, pH 5.4, 37°C): ~6% | carboxypeptidase activity against ET-1 ([2]; Scpep1^−/− mice, relative to WT, pH 5.4, 37°C): ~70%
Substance: endothelin-1 [ET-1]
vessel reactivity versus WT mice ([1]; mesenteric arteries of CathA^S190A and Scpep1^−/− mice): higher | vessel reactivity versus all other groups of mice ([1]; mesenteric arteries of CathA^S190A/Scpep1^−/− mice): significantly higher
